# Results published in patent publication US8680052B1, “Methods of treating, reducing the incidence of, and/or preventing ischemic events” (The Medicines Company, priority 2013, dated 2014).
# Test system: patients undergoing percutaneous coronary intervention (PCI)
# Details: human, in vivo, 48 h
# 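Also: bleeding events compared through 48 h in the safety population, meaning patients given at least one study drug dose and grouped by treatment actually received, two-tailed tests at 0.05.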
# Experimental: The primary efficacy endpoint was the composite of mortality, myocardial infarction, or ischemia-driven revascularization at 48 hours. The primary analysis was performed on a modified intent-to-treat population. Confirmatory analyses were performed on an intent-to-treat population. Secondary endpoints included the individual rates of mortality, myocardial infarction, new Q-wave myocardial infarction, ischemia-driven revascularization, abrupt vessel closure, or stroke at 48 hours. Mortality at 30 days and 1 year was also recorded. The clinical events committee adjudicated myocardial infarction, Q-wave myocardial infarction, ischemia-driven revascularization, stent thromboses, and stroke (ischemic or hemorrhagic). The definition of stent thrombosis was similar to the Academic Research Consortium definition of definite stent thrombosis. After review of the prespecified analyses, two exploratory endpoints less reliant on periprocedural biomarker ascertainment were examined. The exploratory endpoints, which were composed of prespecified and adjudicated endpoints, were the composite of mortality, Q-wave myocardial infarction, or ischemia-driven revascularization and the composite of mortality, Q-wave myocardial infarction, or stent thrombosis. Bleeding and adverse events through 48 hours were compared.
# All efficacy analyses were performed on the modified intent-to-treat population, defined as all randomized patients who received at least one dose of study drug and underwent the index PCI. All safety-related analyses were performed on the safety population, which included all patients who received at least one dose of assigned study drug. Patients in the safety analyses were assigned to a treatment arm based on treatment actually received, not as randomized. Intent-to-treat analyses are also presented for full disclosure of results. All statistical tests were two-tailed using a level of significance of 0.05. […] Logistic regression was also used to analyze the majority of the remaining secondary endpoints.
smiles,measurement,value
"CSCCNc1nc(SCCC(F)(F)F)nc2c1ncn2[C@@H]1O[C@H](COP(=O)(O)OP(=O)(O)C(Cl)(Cl)P(=O)(O)O)[C@@H](O)[C@H]1O [Cangrelor, cangrelor]",ACUITY criteria Major bleeding,147 (5.5) no. (%)
same,ACUITY criteria Minor bleeding,320 (12.0) no. (%)
same,Access site bleeding requiring radiologic or surgical intervention,8 (0.3) no. (%)
same,Any blood transfusion,26 (1.0) no. (%)
same,Any platelet transfusion,4 (0.2) no. (%)
same,Any red blood cell transfusion,25 (0.9) no. (%)
same,Drop in hemoglobin and/or hematocrit,33 (1.2) no. (%)
same,Ecchymosis,95 (3.6) no. (%)
same,Epistaxis,6 (0.2) no. (%)
same,GUSTO criteria Mild bleeding,427 (16.0) no. (%)
same,GUSTO criteria Moderate bleeding,20 (0.8) no. (%)
same,GUSTO criteria Severe/life-threatening bleeding,9 (0.3) no. (%)
same,Hematoma <5 cm at puncture site,150 (5.6) no. (%)
same,Hematoma ≧5 cm at puncture site,115 (4.3) no. (%)
same,Hemodynamic compromise,7 (0.3) no. (%)
same,Intracranial hemorrhage,2 (0.1) no. (%)
same,Intraocular,0 (0.0) no. (%)
same,Odds Ratio (95% CI): Any blood transfusion,"1.624 (0.869, 3.034)"
same,Odds Ratio (95% CI): Any platelet transfusion,"1.992 (0.365, 10.887)"
same,Odds Ratio (95% CI): Any red blood cell transfusion,"1.665 (0.876, 3.166)"
same,Odds Ratio (95% CI): Drop in hemoglobin and/or hematocrit,"0.938 (0.581, 1.514)"
same,Odds Ratio (95% CI): Ecchymosis,"1.684 (1.207, 2.349)"
same,Odds Ratio (95% CI): Epistaxis,"0.497 (0.186, 1.325)"
same,Odds Ratio (95% CI): GUSTO criteria Mild bleeding,"1.442 (1.232, 1.688)"
same,Odds Ratio (95% CI): Reoperation for bleeding,"0.995 (0.062, 15.924)"
same,Odds Ratio (95% CI): Retroperitoneal,"1.992 (0.180, 21.978)"
same,Odds Ratio (95% CI): TIMI criteria Major bleeding,"0.442 (0.136, 1.436)"
same,Odds Ratio (95% CI): TIMI criteria Minor bleeding,"1.372 (0.719, 2.618)"
same,Odds Ratio (95% CI): Thrombocytopenia,"0.663 (0.111, 3.973)"
same,Oozing at puncture site,125 (4.7) no. (%)
same,Reoperation for bleeding,1 (0.0) no. (%)
same,Retroperitoneal,2 (0.1) no. (%)
same,TIMI criteria Major bleeding,4 (0.2) no. (%)
same,TIMI criteria Minor bleeding,22 (0.8) no. (%)
